pEC50: −log10 of the molar value.
Key:
[1] = target: T1, human Maxi K channel (BK channel), KCNMA1 (KCa1.1) and beta1 (KCNMB1) subunits (Homo sapiens, UniProt Q12791); assay: Agonistic activity at the human Maxi K channel (BK channel), membrane potential (FLIPR) in transfected CHO K1 cells; type: cell-based; conditions: membrane potential dye, 70 mM KCl
T1 construct: expressed in transfected cells; host or cells: CHO K1
Description: A CHO K1 cell line was stably transfected with the KCNMA1 (KCa1.1, U11058) and beta1 (KCNMB1) subunits of the human Maxi K channel (Ponte et al, Molecular Pharmacology 2012, 81(4), 567-577).
The complete measurement takes 150 s.

[2] = target: Caenorhabditis elegans slo-1a (Caenorhabditis elegans, UniProt Q95V25); assay: Agonistic activity at C. elegans Slo-1a, membrane potential (FLIPR) in transfected CHO K1 cells; conditions: EC50 agonistic activity at C. elegans Slo-1a, membrane potential dye, 70 mM KCl
Caenorhabditis elegans slo-1a, sequence (Q95V25 whole entry): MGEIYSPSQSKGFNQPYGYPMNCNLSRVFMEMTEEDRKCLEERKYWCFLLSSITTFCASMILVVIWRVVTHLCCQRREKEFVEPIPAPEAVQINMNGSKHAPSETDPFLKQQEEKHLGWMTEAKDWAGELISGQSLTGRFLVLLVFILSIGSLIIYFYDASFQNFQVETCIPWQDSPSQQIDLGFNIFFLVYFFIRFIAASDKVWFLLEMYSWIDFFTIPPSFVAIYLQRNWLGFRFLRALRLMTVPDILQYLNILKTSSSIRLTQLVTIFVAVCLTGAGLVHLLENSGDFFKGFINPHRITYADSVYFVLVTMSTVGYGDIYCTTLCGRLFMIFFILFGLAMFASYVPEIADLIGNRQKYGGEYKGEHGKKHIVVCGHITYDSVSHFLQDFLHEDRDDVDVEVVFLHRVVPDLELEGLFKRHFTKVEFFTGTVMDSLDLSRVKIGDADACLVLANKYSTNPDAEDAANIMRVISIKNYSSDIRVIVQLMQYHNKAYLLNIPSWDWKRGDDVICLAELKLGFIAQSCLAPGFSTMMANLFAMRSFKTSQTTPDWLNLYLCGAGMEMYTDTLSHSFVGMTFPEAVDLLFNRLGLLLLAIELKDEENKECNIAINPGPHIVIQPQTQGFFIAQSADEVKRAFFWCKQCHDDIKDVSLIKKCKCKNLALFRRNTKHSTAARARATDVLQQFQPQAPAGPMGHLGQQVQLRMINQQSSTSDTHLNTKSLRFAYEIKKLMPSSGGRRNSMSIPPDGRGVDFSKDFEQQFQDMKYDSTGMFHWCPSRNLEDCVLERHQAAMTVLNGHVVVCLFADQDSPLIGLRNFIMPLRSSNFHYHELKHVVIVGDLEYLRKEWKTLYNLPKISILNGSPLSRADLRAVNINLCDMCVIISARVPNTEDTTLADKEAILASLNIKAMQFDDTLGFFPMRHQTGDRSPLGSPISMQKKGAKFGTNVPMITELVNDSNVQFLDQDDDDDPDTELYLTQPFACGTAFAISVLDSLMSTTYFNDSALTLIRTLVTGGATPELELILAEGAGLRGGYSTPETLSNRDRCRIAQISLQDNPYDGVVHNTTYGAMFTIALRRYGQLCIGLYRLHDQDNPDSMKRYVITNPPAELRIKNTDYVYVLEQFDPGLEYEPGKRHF
Description: A CHO K1 cell line stably transfected with the Caenorhabditis elegans slo-1a (accession no Y51A2D.19a) was established. Cells were seeded in microtiter plates (black 384-well MTP, clear bottom) in a concentration of 10,000 cells/well in 25 μl medium and cultured for 20 to 24 hours at 37° C. and 5% CO2. The cell medium was removed, and the cells washed with Tyrode's solution. 1 of FMP-dye Blue-Tyrode's was added to each well and incubated at room temperature for 30 min.
For the membrane potential measurements, the prepared cell plate and substance plate were placed in the FLIPR Tetra (Molecular Devices). The baseline measurement of the fluorescence was stared for 20 sec (Exc. 510-545 nm, Emm. 565-625 nm). The cells were depolarized by addition of 25p of the diluted test compounds (final assay concentration of the KCl-Tyrode: 70 mM KCl, 2 mM CaCl2), 1 mM MgCl2, 0.8 mM NaH2PO4, 5 mM Glucose, 28 mM Hepes, pH 7.4, including the voltage sensitive dye). The complete measurement takes 150 s.
EC50 values were determined in triplicate utilizing compound dilution series. The data were determined at least in two independent tests. The data were proceeded by using the ActivityBase XE Runner software (IDBS) for curve fitting and calculation of the half-maximal effective concentration.

Ascaridia galli L3 = assay: In vitro assay Ascaridia galli larval stage 3, minimum effective concentration; type: cell-based; conditions: 20 larvae per well, microscopic examination, read-out: MEC (minimum effective concentration) against Ascaridia galli L3
Description: […] galli (intestinal roundworm of chicken), larval stage 3 (“L3”); and Oesophagostumum dentatum (nodular worm of swine), larval stages 3 and 4 (respectively “L3” and “L4”) where suspended in a nutrient medium and distributed to 96 well plates with 20 larvae per well. The wells were spiked DMSO solutions of the compounds with declining concentration.

T1 sequence (Q12791 1-1178 isoform Q12791-5): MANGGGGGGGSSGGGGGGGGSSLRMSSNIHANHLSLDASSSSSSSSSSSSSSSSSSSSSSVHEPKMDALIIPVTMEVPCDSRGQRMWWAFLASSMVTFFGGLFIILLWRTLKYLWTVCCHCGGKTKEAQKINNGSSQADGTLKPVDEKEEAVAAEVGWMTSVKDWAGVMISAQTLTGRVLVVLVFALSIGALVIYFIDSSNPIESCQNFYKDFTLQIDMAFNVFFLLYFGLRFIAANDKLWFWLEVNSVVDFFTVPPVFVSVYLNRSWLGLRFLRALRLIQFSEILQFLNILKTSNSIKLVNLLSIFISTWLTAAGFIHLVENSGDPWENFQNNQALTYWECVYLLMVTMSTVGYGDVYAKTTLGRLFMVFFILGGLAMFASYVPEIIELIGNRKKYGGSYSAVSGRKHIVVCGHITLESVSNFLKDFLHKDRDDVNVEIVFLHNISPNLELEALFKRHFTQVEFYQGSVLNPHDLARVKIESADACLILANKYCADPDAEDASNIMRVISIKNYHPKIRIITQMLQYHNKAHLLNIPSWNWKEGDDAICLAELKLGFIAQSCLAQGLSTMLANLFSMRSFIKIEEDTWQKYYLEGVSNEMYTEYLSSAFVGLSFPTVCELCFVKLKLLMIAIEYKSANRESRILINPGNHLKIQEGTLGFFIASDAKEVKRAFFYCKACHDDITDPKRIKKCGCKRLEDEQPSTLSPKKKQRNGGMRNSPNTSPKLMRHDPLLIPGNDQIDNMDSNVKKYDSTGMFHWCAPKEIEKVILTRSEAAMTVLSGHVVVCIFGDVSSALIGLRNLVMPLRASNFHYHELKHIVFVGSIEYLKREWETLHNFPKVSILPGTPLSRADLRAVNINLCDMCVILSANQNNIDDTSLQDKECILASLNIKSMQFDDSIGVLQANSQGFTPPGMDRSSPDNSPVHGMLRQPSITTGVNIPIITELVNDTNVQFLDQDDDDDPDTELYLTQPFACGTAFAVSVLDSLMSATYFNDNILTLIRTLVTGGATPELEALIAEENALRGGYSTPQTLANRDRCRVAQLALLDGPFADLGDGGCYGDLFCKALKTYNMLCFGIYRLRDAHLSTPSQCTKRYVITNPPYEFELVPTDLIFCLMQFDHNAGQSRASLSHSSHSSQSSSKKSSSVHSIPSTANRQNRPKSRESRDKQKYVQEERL
T1 sequence (Q16558 whole entry partner): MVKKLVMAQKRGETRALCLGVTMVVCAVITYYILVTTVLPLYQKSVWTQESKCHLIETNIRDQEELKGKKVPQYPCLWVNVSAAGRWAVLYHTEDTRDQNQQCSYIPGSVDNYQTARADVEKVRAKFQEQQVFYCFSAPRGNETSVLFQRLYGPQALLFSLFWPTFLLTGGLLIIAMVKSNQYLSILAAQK

SMILES	pEC50 [1]	pEC50 [2]	minimal effective concentration (Ascaridia galli L3)
CC(C)Oc1c(NC(=O)C2CCOc3ccccc32)cnc2c(-c3cc(Cl)cc(Cl)c3)cccc12 (centres unmarked) [Compound 78]	< 4.52	–	–
Cc1c(NC(=O)c2ccnc3ccccc23)cnc2c(-c3cccc(Cl)c3Cl)cccc12 [Compound 106]	< 4.52	–	–
CN(C)c1c(NC(=O)C2CCOc3ccccc32)cnc2c(-c3cc(Cl)cc(Cl)c3)c(Cl)ccc12 (centres unmarked) [Compound 171]	< 4.52	> 6.00	–
CC(C(=O)Nc1cnc2c(-c3cccc(Cl)c3Cl)cccc2c1N(C)C)c1cccc(N(C)C)c1 (centres unmarked) [Compound 50]	< 4.52	–	≤ 50 µM
CCOc1c(NC(=O)C2CCc3ccccc32)cnc2c(-c3cccc(Cl)c3Cl)c(F)ccc12 (centres unmarked) [Compound 139]	< 4.52	> 6.00	–
CCOc1c(NC(=O)C2CCc3ccccc32)cnc2c(-c3cc(Cl)cc(Cl)c3)c(F)ccc12 (centres unmarked) [Compound 134]	< 4.52	–	–
O=C(Nc1cnc2c(-c3cccc(Cl)c3Cl)c(F)ccc2c1N1CCOCC1)C1CCCc2ccccc21 (centres unmarked) [Compound 121]	5.00 to 6.00	> 6.00	–
Cc1c(NC(=O)c2cccc3ccccc23)cnc2c(-c3cc(Cl)cc(Cl)c3)cccc12 [Compound 198]	< 4.52	–	≤ 50 µM
CN(C)c1c(NC(=O)C2CCCc3ccccc32)cnc2c(-c3cccc(Cl)c3Cl)cccc12 (centres unmarked) [Compound 13]	5.00 to 6.00	> 6.00	–
CC(C)Oc1c(NC(=O)C2CCCc3ccccc32)cnc2c(-c3cc(Cl)cc(Cl)c3)cccc12 (centres unmarked) [Compound 76, N-(8-(3,5-dichlorophenyl)-4-isopropoxyquinolin-3-yl)-1,2,3,4-tetrahydro-naphthalene-1-carboxamide]	< 4.52	–	≤ 50 µM
C=C(C)c1c(NC(=O)c2cccc3ccccc23)cnc2c(-c3cccc(Cl)c3Cl)cccc12 [Compound 189]	< 4.52	–	–
COc1c(NC(=O)[C@H]2CCCc3ccccc32)cnc2c(-c3cccc(Cl)c3Cl)c(C)ccc12 [Compound 183]	< 4.52	> 6.00	–
O=C(Nc1cnc2c(-c3cccc(Cl)c3Cl)cccc2c1N1CCOCC1)C1CCc2ccccc21 (centres unmarked) [Compound 20]	5.00 to 6.00	> 6.00	–
COCCNc1c(NC(=O)C2CCCc3ccccc32)cnc2c(-c3cccc(Cl)c3Cl)cccc12 (centres unmarked) [Compound 101]	4.52 to 5.00	–	–
Cc1ccc2c(N(C)C)c(NC(=O)[C@H]3CCCc4ccccc43)cnc2c1-c1cccc(Cl)c1Cl [Compound 184]	4.52 to 5.00	> 6.00	–
CC(C(=O)Nc1cnc2c(-c3cc(Cl)cc(Cl)c3)cccc2c1N1CCOCC1)c1ccccc1 (centres unmarked) [Compound 9]	< 4.52	> 6.00	–
CC(C)c1c(NC(=O)C2CCCc3ccccc32)cnc2c(-c3cccc(Cl)c3Cl)cccc12 (centres unmarked) [Compound 109]	< 4.52	> 6.00	–
CN(C)c1c(NC(=O)C2CCc3ccccc32)cnc2c(-c3cccc(Cl)c3Cl)c(F)ccc12 (centres unmarked) [Compound 140]	4.52 to 5.00	> 6.00	–
CCOc1c(NC(=O)[C@H]2CCCc3ccccc32)cnc2c(-c3cccc(Cl)c3Cl)cccc12 [Compound 54]	< 4.52	> 6.00	–
CN(C)c1c(NC(=O)C2CCc3ccccc32)cnc2c(-c3cc(Cl)cc(Cl)c3)c(F)ccc12 (centres unmarked) [Compound 135]	< 4.52	> 6.00	–

SMILES	pEC50 [1]	pEC50 [2]	minimal effective concentration (Ascaridia galli L3)
CCCc1c(NC(=O)c2cccc3ccccc23)cnc2c(-c3cccc(Cl)c3Cl)cccc12 [Compound 187]	< 4.52	> 6.00	–
O=C(Nc1cnc2c(-c3cc(Cl)cc(Cl)c3)c(F)ccc2c1N1CCOCC1)c1cccc2ccccc12 [Compound 146]	4.52 to 5.00	> 6.00	–
O=C(Nc1cnc2c(-c3cc(Cl)cc(Cl)c3)c(F)ccc2c1N1CCOCC1)C1CCOc2ccccc21 (centres unmarked) [Compound 126]	< 4.52	> 6.00	–
C=C(C)c1c(NC(=O)c2cccc3ccccc23)cnc2c(-c3cc(Cl)cc(Cl)c3)cccc12 [Compound 200]	< 4.52	–	≤ 50 µM
Cc1c(NC(=O)c2cccc3ccccc23)cnc2c(-c3cccc(Cl)c3Cl)cccc12 [Compound 190]	< 4.52	> 5.00	–
O=C(Cc1ccccc1)Nc1cnc2c(-c3cc(Cl)cc(Cl)c3)cccc2c1N1CCOCC1 [Compound 5]	< 4.52	–	–
CN(C)c1c(NC(=O)c2cccc3ccccc23)cnc2c(-c3cc(Cl)cc(Cl)c3)cccc12 [Compound 153]	< 4.52	> 5.00	–
CCOc1c(NC(=O)c2cccc3ccccc23)cnc2c(-c3cc(Cl)cc(Cl)c3)c(F)ccc12 [Compound 144]	< 4.52	> 5.00	–
O=C(Nc1cnc2c(-c3cc(Cl)cc(Cl)c3)cccc2c1N1CCOCC1)C1CCOc2ccccc21 (centres unmarked) [Compound 7]	< 4.52	> 5.00	–
CC(C)Oc1c(NC(=O)C2CCc3ccccc32)cnc2c(-c3cc(Cl)cc(Cl)c3)cccc12 (centres unmarked) [Compound 80]	< 4.52	–	–
O=C(Nc1cnc2c(-c3cc(Cl)cc(Cl)c3)cccc2c1O)C1CCOc2ccccc21 (centres unmarked) [Compound 64]	< 4.52	–	–
COCCN(C)c1c(NC(=O)C2CCCc3ccccc32)cnc2c(-c3cccc(Cl)c3Cl)cccc12 (centres unmarked) [Compound 103]	< 4.52	> 6.00	–
CCc1c(NC(=O)C2CCOc3ccccc32)cnc2c(-c3cccc(Cl)c3Cl)cccc12 (centres unmarked) [Compound 105]	< 4.52	> 6.00	–
CN(C)c1c(NC(=O)[C@H]2CCCc3ccccc32)cnc2c(-c3cc(Cl)cc(Cl)c3)c(Cl)ccc12 [Compound 186]	< 4.52	> 6.00	–
O=C(Nc1cnc2c(-c3cc(Cl)cc(Cl)c3)cccc2c1N1CCOCC1)c1cccc2ccccc12 [Compound 74]	4.52 to 5.00	> 6.00	–
O=C(Nc1cnc2c(-c3cc(Cl)cc(Cl)c3)c(Cl)ccc2c1N1CCOCC1)C1CCOc2ccccc21 (centres unmarked) [Compound 170]	< 4.52	> 6.00	–
O=C(Nc1cnc2c(-c3cccc(Cl)c3Cl)cccc2c1O)C1CCc2ccccc21 (centres unmarked) [Compound 111]	< 4.52	–	–
O=C(Nc1cnc2c(-c3cccc(Cl)c3Cl)cccc2c1N1CCOCC1)[C@H]1CCCc2ccccc21 [Compound 53]	5.00 to 6.00	–	–
CCOc1c(NC(=O)C2CCCc3ccccc32)cnc2c(-c3cccc(Cl)c3Cl)cccc12 (centres unmarked) [Compound 55]	< 4.52	> 6.00	–
CCOc1c(NC(=O)C2CCCc3ccccc32)cnc2c(-c3cccc(Cl)c3Cl)c(F)ccc12 (centres unmarked) [Compound 119]	< 4.52	> 6.00	–

SMILES	pEC50 [1]	pEC50 [2]	minimal effective concentration (Ascaridia galli L3)
COCCN(C)c1c(NC(=O)C2CCOc3ccccc32)cnc2c(-c3cccc(Cl)c3Cl)cccc12 (centres unmarked) [Compound 93]	< 4.52	–	–
CC(C)Oc1c(NC(=O)C2CCCc3ccccc32)cnc2c(-c3cccc(Cl)c3Cl)cccc12 (centres unmarked) [Compound 59]	< 4.52	–	–
O=C(Nc1cnc2c(-c3cc(Cl)cc(Cl)c3)cccc2c1O)C1CCc2ccccc21 (centres unmarked) [Compound 65]	< 4.52	> 5.00	–
CC(C)Nc1c(NC(=O)C2CCCc3ccccc32)cnc2c(-c3cccc(Cl)c3Cl)cccc12 (centres unmarked) [Compound 97]	< 4.52	–	–
CC(C)Oc1c(NC(=O)C2CCCc3ccccc32)cnc2c(-c3cc(Cl)cc(Cl)c3)c(F)ccc12 (centres unmarked) [Compound 117]	< 4.52	–	–
O=C(Nc1cnc2c(-c3cccc(Cl)c3Cl)cccc2c1N1CCOCC1)C1CCCc2ccccc21 (centres unmarked) [Compound 19]	5.00 to 6.00	> 6.00	–
CCc1c(NC(=O)[C@H]2CCCc3ccccc32)cnc2c(-c3cccc(Cl)c3Cl)cccc12 [Compound 204]	< 4.52	> 6.00	–
CCOc1c(NC(=O)c2cccc3ccccc23)cnc2c(-c3cccc(Cl)c3Cl)c(F)ccc12 [Compound 149]	< 4.52	> 6.00	–
O=C(Nc1cnc2c(-c3cc(Cl)cc(Cl)c3)cccc2c1N1CCOCC1)C1CCc2ccccc21 (centres unmarked) [Compound 82]	4.52 to 5.00	> 6.00	–
CC(C)N(C)c1c(NC(=O)C2CCOc3ccccc32)cnc2c(-c3cccc(Cl)c3Cl)cccc12 (centres unmarked) [Compound 89]	< 4.52	–	≤ 50 µM
CN(C)c1c(NC(=O)C2CCCc3ccccc32)cnc2c(-c3cc(Cl)cc(Cl)c3)cccc12 (centres unmarked) [Compound 68]	< 4.52	> 6.00	–
COc1c(NC(=O)c2cccc3ccccc23)cnc2c(-c3cccc(Cl)c3Cl)cccc12 [Compound 62]	< 4.52	> 6.00	–
CCNc1c(NC(=O)C2CCCc3ccccc32)cnc2c(-c3cccc(Cl)c3Cl)cccc12 (centres unmarked) [Compound 96]	4.52 to 5.00	–	≤ 50 µM
Cc1ccc2c(N3CCOCC3)c(NC(=O)C3CCOc4ccccc43)cnc2c1-c1cc(Cl)cc(Cl)c1 (centres unmarked) [Compound 174]	< 4.52	> 6.00	–
O=C(Nc1cnc2c(-c3cc(Cl)cc(Cl)c3)cccc2c1O)c1cccc2ccccc12 [Compound 66]	< 4.52	–	≤ 50 µM
O=C(Nc1cnc2c(-c3cccc(Cl)c3Cl)c(F)ccc2c1N1CCOCC1)C1CCc2ccccc21 (centres unmarked) [Compound 141]	5.00 to 6.00	> 6.00	–
O=C(Nc1cnc2c(-c3cc(Cl)cc(Cl)c3)c(Cl)ccc2c1N1CCOCC1)[C@H]1CCCc2ccccc21 [Compound 185]	4.52 to 5.00	> 6.00	–
CN(C)c1c(NC(=O)c2cccc3ccccc23)cnc2c(-c3cccc(Cl)c3Cl)c(F)ccc12 [Compound 150]	4.52 to 5.00	> 6.00	–
CCc1c(NC(=O)c2ccnc3ccccc23)cnc2c(-c3cccc(Cl)c3Cl)cccc12 [Compound 104]	< 4.52	–	≤ 50 µM

Source: patent US12509449B2, “Anthelmintic compounds comprising a quinoline structure” (Intervet Inc., priority 2019, dated 2025)
